Results: PubChem BioAssay (NCI)
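48-hour exposure; five concentrations; linearly interpolated endpoints. TGI denotes the concentration required for complete inhibition of growth.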

Experiments:
Test in all cases: inhibition of tumour cell growth, NCI panel, 48 h
OVCAR-8 ovarian = system: OVCAR-8 ovarian
DU-145 prostate = system: DU-145 prostate
SNB-75 CNS = system: SNB-75 CNS
EKVX NSCLC = system: EKVX NSCLC
HT29 colon = system: HT29 colon
NCI-H23 lung = system: NCI-H23 lung
CCRF-CEM leukemia = system: CCRF-CEM leukemia
NCI-H226 lung = system: NCI-H226 lung
SR leukemia = system: SR leukemia
MDA-MB-231 breast = system: MDA-MB-231 breast
UACC-257 melanoma = system: UACC-257 melanoma
SNB-19 CNS = system: SNB-19 CNS
M14 melanoma = system: M14 melanoma
SK-MEL-5 melanoma = system: SK-MEL-5 melanoma
SF-539 CNS = system: SF-539 CNS
COLO 205 colon = system: COLO 205 colon
SN12C renal = system: SN12C renal
SK-MEL-28 melanoma = system: SK-MEL-28 melanoma
NCI/ADR-RES ovarian = system: NCI/ADR-RES ovarian
K-562 leukemia = system: K-562 leukemia
HL-60(TB) leukemia = system: HL-60(TB) leukemia
OVCAR-4 ovarian = system: OVCAR-4 ovarian
LOX IMVI melanoma = system: LOX IMVI melanoma
OVCAR-5 ovarian = system: OVCAR-5 ovarian
ACHN renal = system: ACHN renal
HCT-15 colon = system: HCT-15 colon
BT-549 breast = system: BT-549 breast
MCF7 breast = system: MCF7 breast
RXF 393 renal = system: RXF 393 renal
TK-10 renal = system: TK-10 renal
MOLT-4 leukemia = system: MOLT-4 leukemia
SF-295 CNS = system: SF-295 CNS
HS 578T breast = system: HS 578T breast
CAKI-1 renal = system: CAKI-1 renal
NCI-H522 lung = system: NCI-H522 lung
MALME-3M melanoma = system: MALME-3M melanoma
T-47D breast = system: T-47D breast
IGROV1 ovarian = system: IGROV1 ovarian
KM12 colon = system: KM12 colon
SK-MEL-2 melanoma = system: SK-MEL-2 melanoma
786-0 renal = system: 786-0 renal
OVCAR-3 ovarian = system: OVCAR-3 ovarian
MDA-MB-435 = system: MDA-MB-435
UO-31 renal = system: UO-31 renal
UACC-62 melanoma = system: UACC-62 melanoma
SK-OV-3 ovarian = system: SK-OV-3 ovarian
HCT-116 colon = system: HCT-116 colon
A549 NSCLC = system: A549 NSCLC
SF-268 CNS = system: SF-268 CNS
NCI-H460 lung = system: NCI-H460 lung
U251 CNS = system: U251 CNS
PC-3 prostate = system: PC-3 prostate
HOP-62 NSCLC = system: HOP-62 NSCLC

`CN(CCN1C(=O)c2cccc3cccc(c23)C1=O)CCN1C(=O)c2cccc3cccc(c23)C1=O` gave a TGI (OVCAR-8 ovarian) of 19.2 µM, a TGI (DU-145 prostate) of over 100 µM and a TGI (SNB-75 CNS) of 49.9 µM. For the same compound, the TGI (EKVX NSCLC) was over 100 µM, the TGI (HT29 colon) was over 100 µM and the TGI (NCI-H23 lung) was 43.7 µM. For the same compound, the TGI (CCRF-CEM leukemia) was 6.91 µM, the TGI (NCI-H226 lung) was 75.2 µM and the TGI (SR leukemia) was 13 µM. It also gave a TGI (MDA-MB-231 breast) of 33.6 µM, a TGI (UACC-257 melanoma) of over 100 µM and a TGI (SNB-19 CNS) of 16.8 µM. For the same compound, the TGI (M14 melanoma) was over 100 µM, the TGI (SK-MEL-5 melanoma) was over 100 µM and the TGI (SF-539 CNS) was over 100 µM. The TGI (COLO 205 colon) was 16.5 µM, the TGI (SN12C renal) was over 100 µM and the TGI (SK-MEL-28 melanoma) was over 100 µM. It also gave a TGI (NCI/ADR-RES ovarian) of over 100 µM, a TGI (K-562 leukemia) of over 100 µM and a TGI (HL-60(TB) leukemia) of over 100 µM. It also gave a TGI (OVCAR-4 ovarian) of over 100 µM, a TGI (LOX IMVI melanoma) of over 100 µM and a TGI (OVCAR-5 ovarian) of over 100 µM. It also gave a TGI (ACHN renal) of 20.7 µM, a TGI (HCT-15 colon) of over 100 µM and a TGI (BT-549 breast) of over 100 µM. It also gave a TGI (MCF7 breast) of over 100 µM, a TGI (RXF 393 renal) of 76.9 µM and a TGI (TK-10 renal) of 27.7 µM. It also gave a TGI (MOLT-4 leukemia) of over 100 µM, a TGI (SF-295 CNS) of 29 µM and a TGI (HS 578T breast) of over 100 µM. It also gave a TGI (CAKI-1 renal) of over 100 µM, a TGI (NCI-H522 lung) of 40.6 µM and a TGI (MALME-3M melanoma) of over 100 µM. It also gave a TGI (T-47D breast) of 10.2 µM, a TGI (IGROV1 ovarian) of over 100 µM and a TGI (KM12 colon) of over 100 µM. For the same compound, the TGI (SK-MEL-2 melanoma) was over 100 µM, the TGI (786-0 renal) was 27.5 µM and the TGI (OVCAR-3 ovarian) was 74.8 µM. For the same compound, the TGI (MDA-MB-435) was over 100 µM, the TGI (UO-31 renal) was 28.8 µM and the TGI (UACC-62 melanoma) was over 100 µM. It also gave a TGI (SK-OV-3 ovarian) of 16.6 µM, a TGI (HCT-116 colon) of over 100 µM and a TGI (A549 NSCLC) of over 100 µM. It also gave a TGI (SF-268 CNS) of over 100 µM, a TGI (NCI-H460 lung) of over 100 µM and a TGI (U251 CNS) of 24.7 µM. It also gave a TGI (PC-3 prostate) of over 100 µM and a TGI (HOP-62 NSCLC) of 26.4 µM.
